# Reference: patent publication US20220023271A1, “COMPOSITION FOR PREVENTING OR TREATING CELLULAR SENESCENCE-RELATED DISEASES COMPRISING ZOTAROLIMUS AS ACTIVE INGREDIENT” (RESEARCH COOPERATION FOUNDATION OF YEUNGNAM UNIVERSITY, priority 2018, published 2022)
# Tests used:
# Assay type in all cases: cell-based
# [1] = test system: human dermal fibroblasts (HDF); assay: CCK-8 cell growth analysis in human fibroblasts
# Procedure: (§1) Each cell was treated in a serum-free culture solution containing 0.5 μM doxorubicin for 4 hours. After washing the cells with a serum-free culture solution, the cells were cultured for 4 days in a culture solution containing 10% FBS, and then cellular aging was confirmed by staining with senescence-associated beta galactosidase (SAβG). After dispensing 2×10^5 cells in a 100 mm culture dish, they were cultured in a 37° C., 5% CO2 incubator. When the cells grew to 80-90% in the culture dish, the cells were removed by treatment with trypsin-EDTA, and the number of cells was measured, and the cell population doubling time (PDT) was measured. After each sample was dissolved in DMSO, young cells, replicative senescent cells, and premature senescent cells treated with doxorubicin were treated with 100 nM zotarolimus, 100 nM rapamycin, 100 nM ABT263, respectively. […] Then, the absorbance was measured at 450 nm using a microplate reader. The degree of cell growth was expressed as a relative value for the absorbance of the control group treated with only DMSO as 100%. […]
# [2] = test system: human umbilical vascular endothelial cells (HUVEC); assay: CCK-8 cell growth analysis in vascular endothelial cells
# Procedure: as §1
# [3] = test system: human retinal pigmented epithelial cells (ARPE-19); assay: LDH activity analysis in retinal pigmented epithelial cells; details: young and senescent retinal pigmented epithelial cells
# Procedure: Cytotoxicity against young and senescent cells was investigated with a lactate dehydrogenase (LDH) activity kit (Dojindo Molecular Technologies Inc.).
# Young cells (1×10^3 cells/100 μl/well) or senescent cells (2×10^3 cells/100 μl/well) were dispensed into a 96-well plate, and then cultured overnight in a 37° C., 5% CO2 incubator. Zotarolimus and ABT263 were treated at each concentration, and then incubated for 4 days in a 37° C., 5% CO2 incubator.
# After transferring the cell culture solution to a 1.5 ml tube, it was centrifuged at 4° C. and 12,000 rpm. 100 μl of the supernatant was dispensed into a 96-well plate, and 100 μl of the LDH measurement solution was added to each well, followed by reaction in a CO2 incubator for 30 minutes.
# 50 μl of the LDH reaction stop solution was added, and absorbance was measured at 490 nm using a microplate reader. The level of LDH activity was expressed as a relative value based on the absorbance of the control group treated with only DMSO.
smiles,measurement,setting,value
CO[C@H]1C[C@@H]2CC[C@@H](C)[C@@](O)(O2)C(=O)C(=O)N2CCCC[C@H]2C(=O)O[C@H]([C@H](C)C[C@@H]2CC[C@H](n3cnnn3)[C@H](OC)C2)CC(=O)[C@H](C)/C=C(\C)[C@@H](O)[C@@H](OC)C(=O)[C@H](C)C[C@H](C)/C=C/C=C/C=C/1C [zotarolimus],cell growth (CCK-8),"[1]; premature senescent fibroblasts by doxorubicin, 100 nM, 4 days, vs DMSO",significantly decreased
same,cell growth with increasing concentration of zotarolimus,"[1]; young vs replicative senescent fibroblasts, concentration-dependent",more markedly decreased in senescent cells compared to young cells
same,cell growth (CCK-8),"[2]; premature senescent HUVEC by doxorubicin, 100 nM, 4 days, vs DMSO, p<0.01",significantly reduced
same,cell growth with increasing concentration of zotarolimus,[2]; young vs replicative senescent HUVEC,decreased compared to the young cells in a concentration-dependent manner
same,cytotoxicity by LDH activity analysis,[3],cytotoxicity specific to senescent cells did not appear
